Experimental data taken from ChEMBL document CHEMBL5465560, “Selectivity Literature for EUbOPEN Chemogenomic Library” (2024).
Values belong to the compound of their own block, whether it stands above or below them.

Experiments:
[1] = target: T1, Protein kinase C zeta type (Homo sapiens) (UniProt Q05513); assay: Selectivity interaction (Kinase panel (Z-LYTE Assay)) EUB0001632a PRKCZ; settings: at 10 µM
T1 sequence (whole entry): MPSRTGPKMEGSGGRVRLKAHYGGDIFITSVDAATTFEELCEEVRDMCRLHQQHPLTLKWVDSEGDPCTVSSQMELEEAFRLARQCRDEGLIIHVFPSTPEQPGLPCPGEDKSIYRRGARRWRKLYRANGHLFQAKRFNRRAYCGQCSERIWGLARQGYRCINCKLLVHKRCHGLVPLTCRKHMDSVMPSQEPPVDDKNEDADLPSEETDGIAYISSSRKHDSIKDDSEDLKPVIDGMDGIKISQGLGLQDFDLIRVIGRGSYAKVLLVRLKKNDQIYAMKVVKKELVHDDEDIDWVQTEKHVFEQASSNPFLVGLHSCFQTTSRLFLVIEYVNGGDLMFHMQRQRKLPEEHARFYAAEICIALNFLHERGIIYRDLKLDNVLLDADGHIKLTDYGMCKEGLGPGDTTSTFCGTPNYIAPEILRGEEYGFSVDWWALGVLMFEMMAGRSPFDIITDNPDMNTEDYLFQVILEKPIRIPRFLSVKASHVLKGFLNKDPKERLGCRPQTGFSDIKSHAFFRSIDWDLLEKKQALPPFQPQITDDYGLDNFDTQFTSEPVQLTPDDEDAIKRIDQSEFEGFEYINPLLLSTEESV

[2] = target: Serine/threonine-protein kinase pim-2 (Homo sapiens, UniProt Q9P1W9); assay: Selectivity interaction (Kinase panel (Z-LYTE Assay)) EUB0001632a PIM2; settings: at 10 µM
[3] = target: High affinity nerve growth factor receptor (Homo sapiens, UniProt P04629); assay: Selectivity interaction (Kinase panel (literature)) EUB0001199aCl NTRK1; settings: at 1 µM
[4] = target: Serine/threonine-protein kinase 32B (Homo sapiens) (UniProt Q9NY57); assay: Selectivity interaction (KinomeScan (DiscoverX)) EUB0000607a STK32B; settings: at 10 µM
[5] = target: T2, Mitogen-activated protein kinase kinase kinase 3 (Homo sapiens) (UniProt Q99759); assay: Selectivity interaction (ActivX KiNativ screen (kinase selectivity in THP-1 cell lysates)) EUB0000639a MAP3K3; format: subcellular; settings: lysate, at 0.04 µM
T2 sequence (whole entry): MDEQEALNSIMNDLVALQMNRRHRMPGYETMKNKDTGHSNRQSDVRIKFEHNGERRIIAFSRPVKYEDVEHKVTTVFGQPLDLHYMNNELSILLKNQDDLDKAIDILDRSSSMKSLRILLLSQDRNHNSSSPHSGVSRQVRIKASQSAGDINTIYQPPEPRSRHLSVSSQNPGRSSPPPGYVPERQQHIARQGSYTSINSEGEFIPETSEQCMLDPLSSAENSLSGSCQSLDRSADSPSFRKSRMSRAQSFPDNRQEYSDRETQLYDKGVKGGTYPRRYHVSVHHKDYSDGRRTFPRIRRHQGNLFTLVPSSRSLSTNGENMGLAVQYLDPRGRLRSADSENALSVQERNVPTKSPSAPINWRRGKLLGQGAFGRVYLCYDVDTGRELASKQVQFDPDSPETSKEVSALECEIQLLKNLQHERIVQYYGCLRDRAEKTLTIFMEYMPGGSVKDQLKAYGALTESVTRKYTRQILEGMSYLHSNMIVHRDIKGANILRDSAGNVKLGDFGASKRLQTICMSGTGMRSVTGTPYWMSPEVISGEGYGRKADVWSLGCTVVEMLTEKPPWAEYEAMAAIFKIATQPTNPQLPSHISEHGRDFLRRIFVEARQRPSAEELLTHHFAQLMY

[6] = target: Calcium/calmodulin-dependent protein kinase type II subunit gamma (Homo sapiens) (UniProt Q13555); assay: Selectivity interaction (ActivX KiNativ screen (kinase selectivity in THP-1 cell lysates)) EUB0000639a CAMK2G; format: subcellular; settings: lysate
[7] = target: Casein kinase I isoform alpha (Homo sapiens, UniProt P48729); assay: Selectivity interaction (KinomeScan (DiscoverX)) EUB0001049a CSNK1A1; settings: at 1 µM
[8] = target: T3, Dual specificity mitogen-activated protein kinase kinase 3 (Homo sapiens) (UniProt P46734); assay: Selectivity interaction (Kinase panel (KiNativ target engagement assay in Jurkat cells)) EUB0001635a MAP2K3; format: cell-based; settings: at 1 µM
T3 sequence (whole entry): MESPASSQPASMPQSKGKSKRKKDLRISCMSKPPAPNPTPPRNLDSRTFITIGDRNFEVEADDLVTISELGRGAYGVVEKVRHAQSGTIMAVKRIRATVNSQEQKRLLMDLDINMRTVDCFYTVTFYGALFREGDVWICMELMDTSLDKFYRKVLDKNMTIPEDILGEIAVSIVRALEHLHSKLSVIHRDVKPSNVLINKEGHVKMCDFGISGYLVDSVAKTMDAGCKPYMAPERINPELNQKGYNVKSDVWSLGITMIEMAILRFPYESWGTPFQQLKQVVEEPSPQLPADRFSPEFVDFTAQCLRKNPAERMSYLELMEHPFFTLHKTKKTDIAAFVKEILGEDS

[9] = target: Cyclin-dependent kinase 18 (Homo sapiens) (UniProt Q07002); assay: Selectivity interaction (KinomeScan (DiscoverX)) EUB0000092b CDK18; settings: at 10 µM
[10] = target: T4, Atypical kinase COQ8B, mitochondrial (Homo sapiens) (UniProt Q96D53); assay: Selectivity interaction (KinomeScan (DiscoverX)) EUB0000618a ADCK4; settings: at 10 µM
T4 sequence (whole entry): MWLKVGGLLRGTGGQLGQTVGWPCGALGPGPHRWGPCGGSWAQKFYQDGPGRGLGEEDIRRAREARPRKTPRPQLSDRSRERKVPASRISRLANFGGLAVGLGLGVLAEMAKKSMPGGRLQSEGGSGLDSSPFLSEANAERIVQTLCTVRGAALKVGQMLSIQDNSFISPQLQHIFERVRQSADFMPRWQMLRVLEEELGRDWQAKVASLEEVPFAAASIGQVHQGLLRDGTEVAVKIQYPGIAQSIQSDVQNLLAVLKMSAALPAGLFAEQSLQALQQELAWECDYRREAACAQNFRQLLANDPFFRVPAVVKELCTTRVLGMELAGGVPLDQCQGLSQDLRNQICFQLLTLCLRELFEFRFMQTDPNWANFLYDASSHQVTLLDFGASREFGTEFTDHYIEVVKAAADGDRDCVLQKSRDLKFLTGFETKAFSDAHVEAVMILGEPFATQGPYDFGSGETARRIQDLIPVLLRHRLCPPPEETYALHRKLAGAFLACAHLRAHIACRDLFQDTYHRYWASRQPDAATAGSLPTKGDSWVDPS

[11] = target: Mitogen-activated protein kinase 1 (Homo sapiens, UniProt P28482); assay: Selectivity interaction (KinomeScan (DiscoverX)) EUB0001619a MAPK1; settings: at 1 µM
Sequence of Mitogen-activated protein kinase 1 (P28482 whole entry): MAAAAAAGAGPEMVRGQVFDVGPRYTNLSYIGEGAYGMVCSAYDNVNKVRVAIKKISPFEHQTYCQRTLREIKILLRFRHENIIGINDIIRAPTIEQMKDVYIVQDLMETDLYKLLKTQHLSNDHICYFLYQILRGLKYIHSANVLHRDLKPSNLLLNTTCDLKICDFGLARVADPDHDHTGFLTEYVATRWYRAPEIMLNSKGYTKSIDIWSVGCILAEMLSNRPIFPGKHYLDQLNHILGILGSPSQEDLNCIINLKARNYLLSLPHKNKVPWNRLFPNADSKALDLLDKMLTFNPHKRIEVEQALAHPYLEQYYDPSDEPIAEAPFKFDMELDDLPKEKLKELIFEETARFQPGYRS

Sequence of Calcium/calmodulin-dependent protein kinase type II subunit gamma (Homo sapiens) (Q13555 whole entry, canonical isoform): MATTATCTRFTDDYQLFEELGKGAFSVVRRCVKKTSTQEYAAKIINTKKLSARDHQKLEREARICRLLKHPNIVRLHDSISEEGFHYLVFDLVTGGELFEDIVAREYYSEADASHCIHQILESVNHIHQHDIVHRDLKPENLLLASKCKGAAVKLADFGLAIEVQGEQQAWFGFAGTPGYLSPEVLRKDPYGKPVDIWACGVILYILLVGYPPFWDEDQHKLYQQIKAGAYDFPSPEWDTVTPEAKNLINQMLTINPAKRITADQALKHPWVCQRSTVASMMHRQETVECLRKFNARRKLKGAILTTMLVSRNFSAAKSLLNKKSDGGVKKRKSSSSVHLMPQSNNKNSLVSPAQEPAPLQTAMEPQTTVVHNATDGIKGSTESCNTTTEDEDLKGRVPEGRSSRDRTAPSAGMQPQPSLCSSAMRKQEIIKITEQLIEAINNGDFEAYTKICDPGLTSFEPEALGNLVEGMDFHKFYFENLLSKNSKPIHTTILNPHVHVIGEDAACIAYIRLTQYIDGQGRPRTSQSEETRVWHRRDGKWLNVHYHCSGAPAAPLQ
Sequence of Serine/threonine-protein kinase 32B (Homo sapiens) (Q9NY57 whole entry): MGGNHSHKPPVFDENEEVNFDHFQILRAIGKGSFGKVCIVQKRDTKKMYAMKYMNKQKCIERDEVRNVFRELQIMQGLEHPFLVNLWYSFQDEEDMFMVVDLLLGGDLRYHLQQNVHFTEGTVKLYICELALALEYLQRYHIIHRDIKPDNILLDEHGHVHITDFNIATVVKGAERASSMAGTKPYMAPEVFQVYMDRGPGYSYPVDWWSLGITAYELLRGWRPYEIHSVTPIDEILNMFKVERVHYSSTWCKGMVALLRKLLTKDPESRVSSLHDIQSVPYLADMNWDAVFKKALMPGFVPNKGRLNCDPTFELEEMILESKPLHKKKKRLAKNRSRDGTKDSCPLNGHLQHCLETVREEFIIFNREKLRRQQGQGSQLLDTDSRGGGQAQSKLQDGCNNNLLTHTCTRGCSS
Sequence of High affinity nerve growth factor receptor (P04629 33-796 limits assumed): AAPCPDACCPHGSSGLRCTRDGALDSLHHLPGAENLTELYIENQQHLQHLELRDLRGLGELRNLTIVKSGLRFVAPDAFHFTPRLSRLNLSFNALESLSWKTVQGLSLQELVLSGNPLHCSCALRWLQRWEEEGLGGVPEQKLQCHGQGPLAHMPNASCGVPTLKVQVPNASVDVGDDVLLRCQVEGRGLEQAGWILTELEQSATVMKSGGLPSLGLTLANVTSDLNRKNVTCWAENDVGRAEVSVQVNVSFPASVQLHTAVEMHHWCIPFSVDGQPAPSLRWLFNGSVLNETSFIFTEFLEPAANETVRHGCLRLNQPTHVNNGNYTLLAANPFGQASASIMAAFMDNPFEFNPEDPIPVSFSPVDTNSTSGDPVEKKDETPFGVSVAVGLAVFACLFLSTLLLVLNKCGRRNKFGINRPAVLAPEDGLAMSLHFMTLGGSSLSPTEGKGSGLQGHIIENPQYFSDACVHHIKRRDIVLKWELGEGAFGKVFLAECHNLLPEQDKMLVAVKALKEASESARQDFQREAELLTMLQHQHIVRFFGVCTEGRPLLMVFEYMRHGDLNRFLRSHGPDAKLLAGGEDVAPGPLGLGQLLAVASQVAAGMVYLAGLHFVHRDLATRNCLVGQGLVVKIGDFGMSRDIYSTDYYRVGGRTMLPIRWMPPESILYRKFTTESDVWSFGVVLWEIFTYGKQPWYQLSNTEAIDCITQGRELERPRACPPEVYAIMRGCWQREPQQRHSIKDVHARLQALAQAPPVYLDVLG
Sequence of Cyclin-dependent kinase 18 (Homo sapiens) (Q07002 whole entry): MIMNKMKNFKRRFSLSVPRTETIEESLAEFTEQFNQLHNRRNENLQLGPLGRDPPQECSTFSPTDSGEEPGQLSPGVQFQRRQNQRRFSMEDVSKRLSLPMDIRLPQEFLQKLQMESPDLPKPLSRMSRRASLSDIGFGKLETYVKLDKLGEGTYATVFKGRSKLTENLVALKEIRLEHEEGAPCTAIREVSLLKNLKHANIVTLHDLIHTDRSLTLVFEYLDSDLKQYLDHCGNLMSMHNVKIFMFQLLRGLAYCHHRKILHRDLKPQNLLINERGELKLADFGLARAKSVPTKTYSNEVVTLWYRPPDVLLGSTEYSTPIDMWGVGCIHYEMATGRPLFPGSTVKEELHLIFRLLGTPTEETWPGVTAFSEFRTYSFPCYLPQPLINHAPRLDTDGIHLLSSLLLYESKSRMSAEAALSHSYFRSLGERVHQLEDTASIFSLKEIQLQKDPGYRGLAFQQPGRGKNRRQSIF
Sequence of Casein kinase I isoform alpha (P48729 2-337 limits assumed): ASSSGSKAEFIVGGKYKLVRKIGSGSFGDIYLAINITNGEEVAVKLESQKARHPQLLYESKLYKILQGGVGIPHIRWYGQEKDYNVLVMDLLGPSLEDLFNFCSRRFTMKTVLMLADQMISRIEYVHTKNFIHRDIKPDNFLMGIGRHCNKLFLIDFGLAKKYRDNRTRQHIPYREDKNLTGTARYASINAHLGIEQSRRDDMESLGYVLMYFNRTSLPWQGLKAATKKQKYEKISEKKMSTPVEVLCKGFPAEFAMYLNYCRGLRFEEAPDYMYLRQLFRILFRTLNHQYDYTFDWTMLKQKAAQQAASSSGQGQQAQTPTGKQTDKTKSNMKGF
Sequence of Serine/threonine-protein kinase pim-2 (Q9P1W9 whole entry, looked up): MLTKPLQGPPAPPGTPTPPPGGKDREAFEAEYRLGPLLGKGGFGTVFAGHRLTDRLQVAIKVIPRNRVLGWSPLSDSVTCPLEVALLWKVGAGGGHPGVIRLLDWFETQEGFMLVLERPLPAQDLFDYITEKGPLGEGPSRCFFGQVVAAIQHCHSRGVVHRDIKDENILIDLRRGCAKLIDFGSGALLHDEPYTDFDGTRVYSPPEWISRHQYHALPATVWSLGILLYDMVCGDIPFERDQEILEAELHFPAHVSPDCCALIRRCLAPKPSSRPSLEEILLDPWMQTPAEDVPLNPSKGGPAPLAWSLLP

% of control [1]: 6.71% | % of control [2]: 0.824%
SMILES: Cn1cc(-n2cnc3c(NCc4nc5cc(Cl)c(Cl)cc5[nH]4)nc(N4CCOCC4)nc32)cn1

% of inhibition [3]: 15%
SMILES: CN1Cc2nccc(-c3cn(C)nc3-c3ccc(F)cc3)c2C1=O

SMILES: CNC(=O)Nc1ccc(-c2nc(N3CC4CCC(C3)O4)c3cnn(C4CCC5(CC4)OCCO5)c3n2)cc1
% of control [4]: 86%

% of inhibition [5]: 8.3% | % of inhibition ([6]; at 0.01 µM): -1% | % of inhibition ([6]; at 0.04 µM): 3.3% | % of inhibition ([6]; at 0.2 µM): 10% | % of inhibition ([6]; at 1 µM): 35.2% | % of inhibition ([6]; at 5 µM): 63%
SMILES: CC[C@@H]1[C@H](F)C(=O)N[C@@H]1COc1nccc2cc(C(N)=O)c(OC)cc12 [ZIMLOVISERTIB]

SMILES: COc1cc(Nc2nc(C)cc(-c3cnn4nc(OC)ccc34)n2)cc(C(F)(F)F)c1
% of control [7]: 77%

SMILES: C=CC(=O)Nc1ccc(C(=O)Nc2[nH]nc3c2CN(C(=O)N[C@H](CN(C)C)c2ccccc2)C3(C)C)cc1
% of engagement ([8]; Selectivity number of off-targets 0.0, Selectivity number of targets 233.0, Source Knowledge https://www.sciencedirect.com/science/article/pii/S2451945619300674?via%3Dihub): 8.4% | % of engagement [8]: -7.7%

SMILES: CCC(=O)N1CCN(c2ccc(-n3c(=O)ccc4cnc5ccc(-c6cnc7ccccc7c6)cc5c43)cc2C(F)(F)F)CC1
% of control [9]: 97%

SMILES: O[C@H]1CC[C@H](Nc2ncc3nc(Nc4c(F)cc(F)cc4F)n([C@H]4CCOC4)c3n2)CC1
% of control [10]: 87%

SMILES: N#Cc1cccc(-c2c[nH]c3ncnc(N4CCOCC4)c23)c1
% of control [11]: 98%
